The text below walks through data of patent US11078496B2, “System for F-box hormone receptor regulated protein expression in mammalian cells” (ICAHN SCHOOL OF MEDICINE AT MOUNT SINAI, priority 2016, dated 2021).

Like-named read-outs stand apart in the source and are kept apart here. A value given as a limit tells only on which side of the number the result lay.

Experiment [1] concerns aphidicolin-treated mESCs. As to the kind of experiment: Mitotic entry after auxin in aphidicolin-treated A-CHK1 mESCs (mitotic index, flow cytometry). Conditions: A-CHK1 mESCs pretreated with aphidicolin for 1 day. Format: cell-based, mouse. As for the experimental part:
FIG. 5A is a western blot analysis depicting endogenous CHK1 (*) and AID^47-CHK1 (A-CHK1, **) in four selected clones and in parental non-infected mESCs. […] serves as a loading control. Experiment was repeated three times for clones #1 and #2, and a representative blot is presented. In FIG. 5B, A-CHK1 #2 mESCs were treated with ethanol (“Con”) or auxin (“IAA”) for 1 day. Cells were then treated with the indicated concentrations of aphidicolin (“Aph”). Equal concentrations of DMSO were applied to all conditions. The next day, cells were stained with crystal violet and plates were scanned. […] Left panel: mitotic index was calculated as the percentage of H3^pS10-positive cells with 4N DNA content, measured by flow cytometry. […] Tyr15 phosphorylation of CDK1 (“CDKlpY^15”) was detected using a phospho-specific antibody. β-Actin serves as a loading control. […]
Flow cytometry was performed on a BD LSRII machine. For GFP and mOrange fluorescence analysis, cells were trypsinized, neutralized with FBS-containing media, supplemented with […] DAPI and kept on ice. […] GFP and mOrange fluorescence intensities were detected using the fluorescein isothiocyanate (“FITC”) and DsRed channels, respectively. Background autofluorescence was measured using parental noninfected cells. […] To calculate % degradation, relative median fluorescence was subtracted from 1. […]

The test system of experiment [2] is AID-fused proteins in mammalian cells. The note with it: cited from earlier work.

As for `O=C(O)Cc1c[nH]c2ccccc12` [auxin, indole-3-acetic acid], the “time of synchronous mitotic entry post-auxin treatment” value in experiment [1] lay within 45 to 90 min. Also, the “rapidity of auxin-dependent protein depletion” value is roughly 90 min in experiment [2] (reported by Han et al.), 60 to 100 min in experiment [2] (reported by Holland et al.), 10 to 30 min in experiment [2] (reported by Lambrus et al.) and greater than 120 min in experiment [2] (reported by Rodriguez-Bravo et al.).
